From patent EP0503388A1, “Pregna-21-oic acid esters” (TEIKOKU SEIYAKU KABUSHIKI KAISHA, priority 1991, dated 1992)

Tested on: back of volunteers (10 healthy adult males)
Assay: Vasoconstrictive activity: skin paleness after application of 0.1 % ointment in fin chamber
Format: in vivo
Conditions: for vasoconstrictive activity (skin paleness), overall result in words: 0.1 % by weight in white petrolatum base, compared with reference ointments of prednisolone and dexamethasone; for % of the number of subject which showed (+) Paleness was clearly observed / % of the number of subject which showed (±) Paleness was slightly obseved: 0.1 % by weight, about 20 mg of sample, 10 subjects
Procedure: The compounds of the present invention were tested for the vasoconstrictive activity in the following manner.
Each of the compounds (1) to (10) of the present invention was mixed in a white petrolatum base (white petrolatum : liquid paraffin = 9 : 1) at a concentration of 0.1 % by weight for use as a test sample. Commercially available steroidal medicaments (ointments of prednisolone and dexamethasone) were used at a concentration of 0.1 % by weight of the steroid as a reference sample. A commercially available ointment base was used as a control.
To one portion of the back of volunteers (10 healthy adult males) was applied each sample. About 20 mg of each sample was put in an aluminum part of fin chamber, which was applied. Two hours and four hours after the application, samples were simultanously removed. […] The result was evaluated based on the following criteria (-) Paleness was not observed. (±) Paleness was slightly obseved. (+) Paleness was clearly observed.

[1] = application time 2 hr, 2 hours after removal
[2] = application time 2 hr, 4 hours after removal
[3] = application time 4 hr, 2 hours after removal
[4] = application time 4 hr, 4 hours after removal

SMILES | vasoconstrictive activity (skin paleness), overall result in words | % of the number of subject which showed (+) Paleness was clearly observed [1] [%] | % of the number of subject which showed (±) Paleness was slightly obseved [1] [%] | % of the number of subject which showed (+) Paleness was clearly observed [2] [%] | % of the number of subject which showed (±) Paleness was slightly obseved [2] [%] | % of the number of subject which showed (+) Paleness was clearly observed [3] [%] | % of the number of subject which showed (±) Paleness was slightly obseved [3] [%] | % of the number of subject which showed (+) Paleness was clearly observed [4] [%] | % of the number of subject which showed (±) Paleness was slightly obseved [4] [%]
COC(=O)[C@@H](O)[C@@]1(O)[C@H](C)C[C@H]2[C@@H]3CCC4=CC(=O)C=C[C@]4(C)[C@@]3(F)[C@@H](O)C[C@@]21C [(5), methyl (20S)-9α-fluoro-16α-methyl-11β,17,20-trihydroxy-3-oxo-1,4-pregnadien-21-oate] | did not show significant difference from reference | – | – | – | – | – | – | – | –
COC(=O)[C@H](O)[C@@]1(O)[C@H](C)C[C@H]2[C@@H]3CCC4=CC(=O)C=C[C@]4(C)[C@@]3(F)[C@@H](O)C[C@@]21C [(6), methyl (20R)-9α-fluoro-16α-methyl-11β,17,20-trihydroxy-3-oxo-1,4-pregnadien-21-oate] | did not show significant difference from reference | – | – | – | – | – | – | – | –
COC(=O)[C@H](OC(=O)C(C)(C)C)[C@@]1(O)CC[C@H]2[C@@H]3CCC4=CC(=O)C=C[C@]4(C)[C@H]3[C@@H](O)C[C@@]21C [Compound (4)] | – | 0 | 10 | 0 | 70 | 20 | 70 | 40 | 100
COC(=O)[C@@H](OC(C)=O)[C@@]1(O)[C@H](C)C[C@H]2[C@@H]3CCC4=CC(=O)C=C[C@]4(C)[C@@]3(F)[C@@H](O)C[C@@]21C [Compound (7), methyl (20S/R)-acetoxy-11β,17-dihydroxy-9α-fluoro-16α-methyl-3-oxo-1,4-pregnadien-21-oate] | excellent pharmacological activity | 0 | 10 | 0 | 50 | 30 | 70 | 50 | 80
COC(=O)[C@H](OC(C)=O)[C@@]1(O)[C@H](C)C[C@H]2[C@@H]3CCC4=CC(=O)C=C[C@]4(C)[C@@]3(F)[C@@H](O)C[C@@]21C [Compound (8), methyl (20S/R)-acetoxy-11β,17-dihydroxy-9α-fluoro-16α-methyl-3-oxo-1,4-pregnadien-21-oate] | did not show significant difference from reference | – | – | – | – | – | – | – | –
COC(=O)[C@@H](OC(=O)C(C)(C)C)[C@@]1(O)[C@H](C)C[C@H]2[C@@H]3CCC4=CC(=O)C=C[C@]4(C)[C@@]3(F)[C@@H](O)C[C@@]21C [Compound (9), methyl (20S)-11β,17-dihydroxy-9α-fluoro-16α-methyl-3-oxo-20-pivaloyloxy-1,4-pregnadien-21-oate] | excellent pharmacological activity | 0 | 0 | 0 | 0 | 0 | 50 | 10 | 90
COC(=O)[C@H](OC(=O)C(C)(C)C)[C@@]1(O)[C@H](C)C[C@H]2[C@@H]3CCC4=CC(=O)C=C[C@]4(C)[C@@]3(F)[C@@H](O)C[C@@]21C [Compound (10), methyl (20R)-11β,17-dihydroxy-9α-fluoro-16α-methyl-3-oxo-20-pivaloyloxy-1,4-pregnadien-21-oate] | – | 0 | 0 | 0 | 10 | 0 | 0 | 0 | 10
C[C@@H]1C[C@H]2[C@@H]3CCC4=CC(=O)C=C[C@]4(C)[C@@]3(F)[C@@H](O)C[C@]2(C)[C@@]1(O)C(=O)CO [Dexamethasone, dexamethasone, reference compound] | – | 0 | 0 | 0 | 10 | 0 | 10 | 0 | 20
C[C@]12C=CC(=O)C=C1CC[C@@H]1[C@@H]2[C@@H](O)C[C@@]2(C)[C@H]1CC[C@]2(O)C(=O)CO [Prednisolone, prednisolone, reference compound] | – | 0 | 0 | 0 | 0 | 0 | 0 | 0 | 0
